Results reported in article PMC6291754 (Frontiers in Microbiology, 2018).
Several values for one entry are separate records, joined by “and”; a condition that tells them apart may be missing. Equal values may be shown once. Read-outs that look alike come from different tables or passages of the source.

What was measured:
[1] = target: B/Perth/211/2001-197E (NA D197E) neuraminidase (NA) (Influenza B virus, UniProt Q3S340, D197E); format: biochemical
[2] = target: A/Chiba/1017/2009 (NA H275Y) neuraminidase (NA) (Influenza A virus, UniProt C7FH46, H275Y); format: biochemical, influenza A(H1N1)pdm09 virus
[3] = target: A/Fukui/45/2004 (NA E119V) neuraminidase (NA) (Influenza A virus, UniProt C6ELZ0, E119V); format: biochemical, influenza A(H3N2) virus
[4] = target: B/Perth/211/2001-197D (NA 197D wild-type) neuraminidase (NA) (Influenza B virus, UniProt Q3S340); format: biochemical
[5] = target: A/Kagoshima/2/2012 (NA R292K) neuraminidase (NA) (Influenza A virus, UniProt J9TKI7, R292K); format: biochemical, influenza A(H3N2) virus
[6] = tested on: influenza A(H3N2) virus with PA N412D; conditions: cited from earlier work
[7] = tested on: B/Perth/211/2001-197D (NA 197D wild-type); assay: microbe, parasite or virus in culture; format: cell-based; conditions: Influenza B virus, MDCK, 72 h, read-out: IC50, plaque reduction
[8] = tested on: B/Perth/211/2001-197D (NA 197D wild-type); assay: microbe, parasite or virus in culture; format: cell-based; conditions: Influenza B virus, MDCK, 24 h, read-out: IC50, focus reduction
[9] = tested on: influenza A(H3N2) virus with PA A37T; conditions: cited from earlier work
[10] = tested on: influenza A(H1N1) virus with PA I38T; conditions: cited from earlier work
[11] = tested on: A/Fukui/20/2004 (NA 119E wild-type); assay: microbe, parasite or virus in culture; format: cell-based, influenza A(H3N2) virus; conditions: Influenza A virus, MDCK, 24 h, read-out: IC50, focus reduction
[12] = tested on: influenza A(H3N2) virus with PA V517A; conditions: cited from earlier work
[13] = tested on: influenza A(H3N2) virus with PA P632S; conditions: cited from earlier work
[14] = tested on: A/Kagoshima/4/2012 (NA 292R wild-type); assay: microbe, parasite or virus in culture; format: cell-based, influenza A(H3N2) virus; conditions: Influenza A virus, MDCK, 72 h, read-out: IC50, plaque reduction
[15] = tested on: influenza A(H1N1) virus with PA E23K; conditions: cited from earlier work
[16] = tested on: A/Chiba/1017/2009 (NA H275Y); format: cell-based, influenza A(H1N1)pdm09 virus
[17] = tested on: A/Chiba/1016/2009 (NA 275H wild-type); assay: microbe, parasite or virus in culture; format: cell-based, influenza A(H1N1)pdm09 virus; conditions: Influenza A virus, MDCK, 72 h, read-out: IC50, plaque reduction
[18] = tested on: A/Fukui/45/2004 (NA E119V); format: cell-based, influenza A(H3N2) virus
[19] = tested on: B/Perth/211/2001-197E (NA D197E); format: cell-based, influenza B virus
[20] = tested on: influenza A(H1N1) virus with PA I38F; conditions: cited from earlier work
[21] = tested on: A/Chiba/1016/2009 (NA 275H wild-type); assay: microbe, parasite or virus in culture; format: cell-based, influenza A(H1N1)pdm09 virus; conditions: Influenza A virus, MDCK, 24 h, read-out: IC50, focus reduction
[22] = tested on: influenza A(H3N2) virus with PA I38T; conditions: cited from earlier work
[23] = tested on: influenza A(H3N2) virus with PA E199G; conditions: cited from earlier work
[24] = tested on: A/PR/8/34 (PA 38I wild-type); assay: microbe, parasite or virus in culture; format: cell-based, influenza A(H1N1) virus; conditions: Influenza A virus, PR/8, MDCK, 24 h, read-out: IC50, focus reduction
[25] = tested on: A/Fukui/20/2004 (NA 119E wild-type); assay: microbe, parasite or virus in culture; format: cell-based, influenza A(H3N2) virus; conditions: Influenza A virus, MDCK, 72 h, read-out: IC50, plaque reduction
[26] = tested on: A/Kagoshima/2/2012 (NA R292K); format: cell-based, influenza A(H3N2) virus
[27] = tested on: influenza A(H1N1) viruses with PA I38T; conditions: cited from earlier work
A/PR/8/34-PA/I38T [28] = format: cell-based, influenza A(H1N1) virus
A/PR/8/34-PA/I38T [29] = format: cell-based, influenza A(H1N1) virus; conditions: read-out: IC50, plaque reduction
[30] = tested on: influenza B virus with PA G548R; conditions: cited from earlier work
[31] = tested on: A/Fukui/45/2004 (NA E119V); format: cell-based, influenza A(H3N2) virus; remark: listed apart in the source
[32] = tested on: influenza A(H3N2) virus with PA I38M; conditions: cited from earlier work
[33] = tested on: B/Perth/211/2001-197E (NA D197E); format: cell-based, influenza B virus; remark: listed apart in the source
[34] = tested on: A/Chiba/1017/2009 (NA H275Y); format: cell-based, influenza A(H1N1)pdm09 virus; remark: listed apart in the source
[35] = tested on: A/Kagoshima/4/2012 (NA 292R wild-type); assay: microbe, parasite or virus in culture; format: cell-based, influenza A(H3N2) virus; conditions: Influenza A virus, MDCK, 24 h, read-out: IC50, focus reduction
[36] = tested on: A/Kagoshima/2/2012 (NA R292K); format: cell-based, influenza A(H3N2) virus; remark: listed apart in the source
[37] = tested on: A/PR/8/34 (PA 38I wild-type); assay: microbe, parasite or virus in culture; format: cell-based, influenza A(H1N1) virus; conditions: Influenza A virus, PR/8, MDCK, 72 h, read-out: IC50, plaque reduction
[38] = target: A/Kagoshima/4/2012 (NA 292R wild-type) neuraminidase (NA) (Influenza A virus, UniProt J9TKI7); format: biochemical, influenza A(H3N2) virus
[39] = target: A/PR/8/34 (PA 38I wild-type) neuraminidase (NA) (Influenza A virus, UniProt P03468); format: biochemical, influenza A(H1N1) virus
[40] = target: A/PR/8/34-PA/I38T neuraminidase (NA) (Influenza A virus, UniProt P03468)
[41] = target: A/Fukui/20/2004 (NA 119E wild-type) neuraminidase (NA) (Influenza A virus, UniProt C6ELZ0); format: biochemical, influenza A(H3N2) virus
[42] = target: A/Chiba/1016/2009 (NA 275H wild-type) neuraminidase (NA) (Influenza A virus, UniProt C7FH46); format: biochemical, influenza A(H1N1)pdm09 virus
[43] = read-out: IC50, plaque reduction
[44] = read-out: IC50, focus reduction

Which results are given for `CO[C@@H]([C@@H]1OC(C(=O)O)=C[C@H](NC(=N)N)[C@H]1NC(C)=O)[C@H](O)CO` [Laninamivir]?
NA inhibitor susceptibility (WHO criteria) [1]: 1.9 ± 0.1 NI; NA inhibitor susceptibility (WHO criteria) [2]: 0.3 ± 0.1 NI; NA inhibitor susceptibility (WHO criteria) [3]: 1.2 ± 0.1 NI; IC50 [4]: 1.3 ± 0.3 nM; NA inhibitor susceptibility (WHO criteria) [5]: 3.9 ± 0.1 NI

With `CC(=O)N[C@H]1[C@H]([C@H](O)[C@H](O)CO)OC(C(=O)O)=C[C@@H]1N=C(N)N` [Zanamivir, zanamivir] as the compound, how does the “NA inhibitor susceptibility (WHO criteria)” value (shortened to “NA inhibitor susceptibility”) [2] read?
Its value is 0.5 ± 0.1 NI.

Which results are given for `O=C1c2c(O)c(=O)ccn2N([C@@H]2c3ccccc3SCc3c2ccc(F)c3F)[C@@H]2COCCN12` [Baloxavir, baloxavir acid]?
effect of substitution on baloxavir susceptibility [6]: not affected; IC50 [7]: 2.2 ± 0.28 nM; IC50 [8]: 5.41 ± 1.99 nM; fold higher EC50 [9]: 8.1 fold; fold higher EC50 [10]: 27.2 fold; IC50 [11]: 1.18 ± 0.49 nM; effect of substitution on baloxavir susceptibility [12]: not affected; effect of substitution on baloxavir susceptibility [13]: not affected; IC50 [14]: 0.15 ± 0.06 nM; fold higher EC50 [15]: 4.7 fold; IC50 fold-change, plaque reduction [16]: 0.21 ± 0.02 (0.8) fold; IC50 [16, 43]: 0.21 nM; IC50 [17]: 0.27 ± 0.09 nM; IC50 fold-change, plaque reduction [18]: 0.15 ± 0.02 (0.4) fold; IC50 [18, 43]: 0.15 nM; IC50 fold-change, plaque reduction [19]: 5.68 ± 1.00 (2.6) fold; IC50 [19, 43]: 5.68 nM; fold higher EC50 [20]: 10.6 fold; IC50 [21]: 0.5 ± 0.02 nM; fold higher EC50 [22]: 56.6 fold; fold higher EC50 [23]: 4.5 fold; IC50 [24]: 0.17 ± 0.03 nM; IC50 [25]: 0.42 ± 0.15 nM; IC50 fold-change, plaque reduction [26]: 0.22 ± 0.09 (1.5) fold; IC50 [26, 43]: 0.22 nM; fold-change in EC50 [27]: 41 fold and 40 fold; IC50 fold-change, focus reduction (A/PR/8/34-PA/I38T [28]): 44 fold; IC50 (A/PR/8/34-PA/I38T [28]; [44]): 7.4 nM; IC50 (A/PR/8/34-PA/I38T [29]): 2.72 nM; effect of substitution on baloxavir susceptibility [30]: does not affect baloxavir susceptibility; IC50 fold-change, focus reduction [31]: 0.62 ± 0.04 (0.5) fold; IC50 [31, 44]: 0.62 nM; fold higher EC50 [32]: 13.8 fold; IC50 fold-change, focus reduction [33]: 5.63 ± 2.34 (1.0) fold; IC50 [33, 44]: 5.63 nM; IC50 fold-change, focus reduction [34]: 0.53 ± 0.15 (1.0) fold; IC50 [34, 44]: 0.53 nM; IC50 [35]: 0.29 ± 0.08 nM; IC50 fold-change, focus reduction [36]: 0.59 ± 0.29 (2.0) fold; IC50 [36, 44]: 0.59 nM; IC50 [37]: 0.05 ± 0.02 nM

With `CCC(CC)[C@H](NC(C)=O)[C@@H]1[C@H](O)[C@@H](C(=O)O)C[C@H]1N=C(N)N` [Peramivir, peramivir] as the compound, how does the IC50 [38] read?
The IC50 was 0.1 ± 0.1 nM.

What about the IC50 [39] of the same compound?
The IC50 was 0.09 ± 0.01 nM.

And the IC50 [1]?
Its IC50 is 16.2 ± 6 nM.

And the “NA inhibitor susceptibility” value [1]?
The value was 16.2 ± 6.0 RI (key: normal inhibition (NI); RI: a 5- to 50-fold increase in IC50 for influenza B viruses; HRI: influenza B viruses with >50-fold increase in IC50).

And the IC50 [40]?
The IC50 was 0.09 nM.

What about the IC50 fold-change [40] of the same compound?
The IC50 fold-change was 0.09 ± 0.01 (1.0) fold.

What about the IC50 [2] of the same compound?
The IC50 was 28 ± 3.9 nM.

What about the IC50 [3] of the same compound?
Its IC50 is 0.2 ± 0.1 nM.

What about the “NA inhibitor susceptibility” value [3] of the same compound?
The value was 0.2 ± 0.1 NI.

What about the IC50 [41] of the same compound?
The IC50 was 0.2 ± 0.1 nM.

What about the IC50 [42] of the same compound?
The IC50 was 0.1 ± 0.1 nM.

And the IC50 ([4]; read-out: IC50)?
Its IC50 is 0.4 ± 0.1 nM.

What about the IC50 [5] of the same compound?
The IC50 was 35.2 ± 2.6 nM.
